Results: patent US9371336B2, “Compounds for treating spinal muscular atrophy” (PTC Therapeutics Inc., priority 2012, dated 2016)

Key:
[1] = system: human SMN1 minigene full length and Δ7 mRNA (SMN1-A); experiment: Human SMN1 minigene mRNA end-point semi-quantitative RT-PCR splicing assay in cultured cells; assay type: cell-based; details: HEK293H cells transfected with SMN1-A minigene, increasing concentrations, 7 hours, agarose gel (FIG. 10)
Text: The RT-PCR assay is used to visualize and quantify the levels of the human SMN1 minigene full length and Δ7 mRNA in primary cells and cell lines expressing the human SMN1 minigene construct treated with a test compound.
Using the procedure for the preparation of the SMN2 minigene construct described in Biological Example 1, the SMN1 version of the minigene is generated by replacing the sixth nucleotide of exon 7 (a thymine residue) of the SMN2-A minigene construct to cytosine using site-directed mutagenesis. Thus, similar to the SMN2-A minigene construct, the SMN1 minigene construct has a single adenine residue inserted after nucleic residue 48 of exon 7. The SMN1 minigene construct is referred to as SMN1-A.
HEK293H cells (10,000 cells/well/199 μL) were transfected, using FuGENE-6 reagent, in a 96-well plate with 15 ng of the SMN1-A minigene reporter plasmid per well. Cells were incubated for 24 hours following transfection. Test compounds were serially diluted 3.16-fold in 100% DMSO to generate a 7-point concentration curve. A solution of test compound (1 μL, 200× in DMSO) was added to each test well. 1 μL DMSO was added to each control well. The plate was incubated for 7 hours in a cell culture incubator (37° C., 5% CO2, 100% relative humidity). The cells were then lysed in Cells-To-Ct lysis buffer and the lysates were stored at −80° C.
Two SMN spliced mRNA are generated from the SMN1 minigene. The term “SMN1 minigene FL” refers to the first spliced product containing exon 7, corresponding to full length SMN1 mRNA. The term “SMN1 minigene A7” refers to the second product lacking exon 7.
SMN1 minigene FL and SMN1 minigene Δ7 mRNA are amplified using the primers in Table 11. Primer SMN Forward C (SEQ ID NO. 11) hybridizes to a nucleotide sequence in exon 6 (nucleotide 43 to nucleotide 63), primer SMN Reverse A (SEQ ID NO. 2) hybridizes to a nucleotide sequence in the coding sequence of Firefly luciferase. The combination of these two oligonucleotides detects only SMN1 or SMN2 minigenes (RT-PCR) and will not detect endogenous SMN1 or SMN2 genes. Since the HEK293H cells used in Example 16 were transfected with only the human SMN1 minigene, RT-PCR can visualize and quantify only SMN1 minigene FL and SMN1 minigene Δ7 mRNA.
(§1) To synthesize cDNA, 5 μL of lysate, 4 μL of 5× iScript reaction mix, 1 μL of reverse transcriptase, and 10 μL of water are combined and incubated 5 min at 25° C. followed by 30 min at 42° C., followed by 5 min at 85° C. The cDNA solution is stored at −20° C.
To perform endpoint PCR, 5 μL of cDNA, 0.2 μL of 100 μM forward primer, 0.2 μL of 100 μM reverse primer, and 22.5 μL of polymerase super mix are combined in a 96 well semiskirted PCR plate. PCR is carried out at the following temperatures for the indicated time: Step 1: 94° C. (2 min), Step 2: 94° C. […]

[2] = system: SMN2 full length and Δ7 mRNA; experiment: Endogenous SMN2 mRNA end-point semi-quantitative RT-PCR splicing assay in cultured cells (GM03813); assay type: cell-based, human; details: Type 1 SMA patient fibroblasts GM03813, increasing concentrations, 24 hr, agarose gel (FIG. 5)
Method: The endpoint reverse transcription-PCR splicing assay is used to visualize and quantify the levels of the SMN2 full length and Δ7 mRNA in primary cells and cell lines containing the SMN2 gene treated with a test compound.
GM03813 SMA patient cells (5,000 cells/well) are seeded in 200 μL of cell culture medium (DMEM plus 10% FBS) in 96-well flat-bottom plates and the plate is immediately swirled to ensure proper dispersal of cells, forming an even monolayer of cells. Cells are allowed to attach for at least 4-6 hrs. Test compounds are serially diluted 3.16-fold in 100% DMSO to generate a 7-point concentration curve. A solution of test compound (1 μL, 200× in DMSO) is added to each test well and 1 μL DMSO is added to each control well. The plate is incubated for 24 hrs in a cell culture incubator (37° C., 5% CO2, 100% relative humidity). The cells are then lysed in Cells-To-Ct lysis buffer and the lysate is stored at 80° C.
SMN FL and Δ7 mRNA are identified using the following primers in Table 6. These primers hybridize to a nucleotide sequence in exon 6 (SMN Forward C, SEQ ID NO. 11) (nucleotide 43 to nucleotide 63) and exon 8 (SMN Reverse C, SEQ ID NO. 12) (nucleotide 51 to nucleotide 73) common to human SMN1 and SMN2 mRNA. Since the SMA patient cells used in Example 4 contain only the SMN2 gene, RT-PCR can visualize and quantify only SMN2 full-length and SMN2 Δ7 mRNA.
as §1
To perform endpoint PCR, 5 μL of cDNA, 0.2 μL of 100 μM forward primer, 0.2 μL of 100 μM reverse primer, and 22.5 μL of polymerase super mix are combined in a 96 well semiskirted PCR plate. PCR is carried out at the following temperatures for the indicated time: Step 1: 94° C. (2 min), Step 2: 94° C. (30 sec), Step 3: 55° C. (30 sec), Step 4: 68° C. (1 min), then repeat Steps 2 to 4 for a total of 33 cycles, then hold at 4° C.
10 μL of each PCR sample is electrophoretically separated on a 2% agarose E-gel for 14 minutes stained with double-stranded DNA (dsDNA) staining reagents (e.g., ethidium bromide) and visualized using a gel imager.

melting point | SMILES | SMN1 minigene FL mRNA (gel band) [1] | SMN1 minigene Δ7 mRNA (gel band) [1] | SMN2 FL mRNA (gel band) [2] | SMN2 Δ7 mRNA (gel band) [2]
258 to 260 °C | CN1CCN(c2ccc3cc(-c4nc5c(Cl)cccc5s4)c(=O)oc3n2)CC1 [Cpd 5, 3-(4-chloro-1,3-benzothiazol-2-yl)-7-(4-methylpiperazin-1-yl)-2H-pyrano[2,3-b]pyridin-2-one] | progressively more SMN1 minigene FL mRNA | less SMN1 minigene Δ7 mRNA | progressively more SMN2 FL mRNA | less SMN2 Δ7 mRNA
260 to 264 °C | Cc1ccc2nc(-c3cc4ccc(N5CCN(C)CC5)nc4oc3=O)cn2c1 [Cpd 27, 3-(6-methylimidazo[1,2-a]pyridin-2-yl)-7-(4-methylpiperazin-1-yl)-2H-pyrano[2,3-b]pyridin-2-one] | progressively more SMN1 minigene FL mRNA | less SMN1 minigene Δ7 mRNA | progressively more SMN2 FL mRNA | less SMN2 Δ7 mRNA
